How the values were obtained:
[1] = system: SMN2 promoter CRE sites 1 and 2; assay: ChIP of Phospho-Elk-1 and Phospho-CREB on SMN2 promoter CRE sites in ventral lumbar spinal cord; type: in vivo, mice; conditions: SMA spinal cords, intrathecal NMDA
Description: The knockout-transgenic SMA-like mice (Smn^−/−, SMN2^+/+) were purchased from the Jackson Laboratory (Bar Harbor, Me.) and genotyped as previously described^15. Vehicle-treated group, NMDA-treated group, U0126-treated group and AZD6244-treated group of type 1 SMA-like mice were randomly constituted in a blind systematic manner to minimize bias. The control mice were heterozygous knock-out for Smn with the human SMN2 transgene (Smn^−/+, to SMN2^+/+).
In order to evaluate phospho-Elk-1 and phospho-CREB role on Smn2 promoter, P1 neonatal control and SMA-like mice, were either injected intrathecally with 5 pmol of N-methyl-D-aspartic Acid 100 μM (NMDA, Sigma, Saint Quentin Fallavier, France) in 0.5 μl/g of 0.9% NaCl dyed in blue Evans per gram. […]
Ventral lumbar Spinal Cord samples were chopped into small pieces with a scalpel and were fixed for 15 min with 1% formaldehyde. […] Lysates were cleared by centrifugation and DNA concentration was determined using a nanodrop spectrophotometer. […]
Quantitative real time PCR was performed with standard protocols using SYBR®Green ROX Mix (ABgene, Courtaboeuf, France) as a fluorescent detection dye in ABI PRISM® 7000 in a final volume of 10 μl which also contains 300 nM of primers (Operon, Cologne, Germany)
The relative amounts of DNA in samples were determined on the basis of the threshold cycle for each PCR product (Ct).

SMN transcripts = conditions: very severe SMA-like mice; splicing pattern not modified; cited from earlier work
AKT = conditions: SMA mice, oral treatment
SMA-like mice [2] = assay: Life span of severe SMA-like mice; type: in vivo; conditions: oral treatment
SMN protein = type: in vivo, mice; conditions: oral treatment
SMA-like mice [3] = assay: Body weight of SMA-like mice; type: in vivo; conditions: oral treatment
Method: The knockout-transgenic SMA-like mice (Smn^−/−, SMN2^+/+) were purchased from the Jackson Laboratory (Bar Harbor, Me.) and genotyped as previously described^15. […] The control mice were heterozygous knock-out for Smn with the human SMN2 transgene (Smn^−/+, to SMN2^+/+). […] These mice were compared to control and SMA-like mice either injected from P1 with 0.5 μl/g of 0.9% NaCl 1% DMSO dyed in blue Evans or orally treated with 2 μl/g of 0.9% NaCl 1% DMSO. Body weight and life span recordings were performed every day until the death of the animal. The animals were considered as dead when mice were no longer able to stand up 20 sec after having been placed on their sides.

Row | Structure (SMILES) | ratio of CREB and Elk-1 binding on the CRE sites [1] | total amount of SMN transcripts in the SMA spinal cord (SMN transcripts) | AKT activation (AKT) | life span of SMA mice (SMA-like mice [2]) | SMN expression in the spinal cord of SMA mice (SMN protein) | body weight (SMA-like mice [3])
1 | CN[C@H](CC(=O)O)C(=O)O [NMDA, N-methyl-D-aspartic Acid] | completely reversed | increased |  |  |  | 
2 | Cn1cnc2c(F)c(Nc3ccc(Br)cc3Cl)c(C(=O)NOCCO)cc21 [Selumetinib, 6-(4-bromo-2-chloroanilino)-7-fluoro-N-(2-hydroxyethoxy)-3-methylbenzimidazole-5-carboxamide] |  |  | activation | remarkable increase | activation | progressive gain
